# Data reported in ChEMBL document CHEMBL4052754, “Targeting progesterone metabolism in breast cancer with l-proline derived new 14-azasteroids” (Bioorg Med Chem, 2017).
# Calls of active or inactive are those of the source. No cut-off for these calls is given here.
# Experiments:
# MDA-MB-231 [1] = experiment: Cytotoxicity against human MDA-MB-231 cells after 24 hrs by MTT assay; format: functional, cell-based; conditions: MDA-MB-231, 24 h
# MCF7 [2] = experiment: Cytotoxicity against human MCF7 cells after 24 hrs by MTT assay; format: functional, cell-based; conditions: MCF7, 24 h
# HEK293 = experiment: Cytotoxicity against HEK293 cells after 24 hrs by MTT assay; format: cell-based; conditions: Homo sapiens, HEK293, 24 h
# MCF7 [3] = experiment: Decrease in progesterone level in human MCF7 cells at 1 to 10 uM after 24 hrs by ELISA; format: functional, cell-based
# MCF7 [4] = experiment: Decrease in 5alpha-DHP level in human MCF7 cells at 1 to 10 uM after 24 hrs by ELISA; format: functional, cell-based
# MCF7 [5] = experiment: Decrease in SRD5A1 level in human MCF7 cells at 1 to 10 uM after 24 hrs by ELISA; format: functional, cell-based
# MDA-MB-231 [6] = experiment: Anti-migratory activity against human MDA-MB-231 cells assessed as reduction in cell migration towards wound area at 50 uM after 24 hrs by phase contrast microscopic analysis relative to control; format: functional; design: scale not given: the % may be the effect or the level left
# MCF7 [7] = experiment: Induction of mitochondrial membrane potential loss in human MCF7 cells after 24 hrs by JC1 staining based flow cytometric analysis; format: functional, cell-based
# MDA-MB-231 [8] = experiment: Induction of apoptosis in human MDA-MB-231 cells after 24 hrs by Annexin-V-FITC/propidium iodide staining based flow cytometric analysis; format: functional, cell-based
# MCF7 [9] = experiment: Induction of mitochondrial membrane potential loss in human MCF7 cells assessed as ratio of green to red fluorescence at 5 uM after 24 hrs by JC1 staining based flow cytometric analysis (reference value: 1.41); format: functional
# MDA-MB-231 [10] = experiment: Induction of mitochondrial membrane potential loss in human MDA-MB-231 cells after 24 hrs by JC1 staining based flow cytometric analysis; format: functional, cell-based
# MDA-MB-231 [11] = experiment: Cell cycle arrest in human MDA-MB-231 cells assessed as decrease in S phase population after 24 hrs by flow cytometric analysis; format: functional, cell-based
# MDA-MB-231 [12] = experiment: Induction of mitochondrial membrane potential loss in human MDA-MB-231 cells assessed as ratio of green to red fluorescence at 1 uM after 24 hrs by JC1 staining based flow cytometric analysis (reference value: 4.55); format: functional
# MCF7 [13] = experiment: Induction of apoptosis in human MCF7 cells after 24 hrs by Annexin-V-FITC/propidium iodide staining based flow cytometric analysis; format: functional, cell-based
# MCF7 [14] = experiment: Induction of mitochondrial membrane potential loss in human MCF7 cells assessed as ratio of green to red fluorescence at 1 uM after 24 hrs by JC1 staining based flow cytometric analysis (reference value: 1.41); format: functional
# MCF7 [15] = experiment: Anti-invasive activity against human MCF7 cells assessed as inhibition of TGF-beta induced cell invasion at 0.5 to 1 uM after 24 hrs by crystal violet staining based transwell assay; format: functional
# MCF7 [16] = experiment: Cell cycle arrest in human MCF7 cells assessed as increase in sub-G1 population at 0.5 to 10 uM after 24 hrs by propidium iodide staining based flow cytometric analysis; format: functional
# MCF7 [17] = experiment: Decrease in 5alpha-DHP level in human MCF7 cells after 24 hrs by ELISA; format: functional, cell-based
# MDA-MB-231 [18] = experiment: Anti-migratory activity against human MDA-MB-231 cells assessed as reduction in cell migration towards wound area at 0.5 to 10 uM after 24 hrs by phase contrast microscopic analysis; format: functional, cell-based
# MCF7 [19] = experiment: Cell cycle arrest in human MCF7 cells assessed as increase in G2/M population at 0.5 to 10 uM after 24 hrs by propidium iodide staining based flow cytometric analysis; format: functional
# MCF7 [20] = experiment: Induction of mitochondrial membrane potential loss in human MCF7 cells assessed as ratio of green to red fluorescence at 0.5 uM after 24 hrs by JC1 staining based flow cytometric analysis (reference value: 1.41); format: functional
# MDA-MB-231 [21] = experiment: Cell cycle arrest in human MDA-MB-231 cells assessed as increase in sub-G1 population after 24 hrs by flow cytometric analysis; format: functional, cell-based
# MDA-MB-231 [22] = experiment: Induction of mitochondrial membrane potential loss in human MDA-MB-231 cells assessed as ratio of green to red fluorescence at 0.5 uM after 24 hrs by JC1 staining based flow cytometric analysis (reference value: 4.55); format: functional
# MDA-MB-231 [23] = experiment: Cell cycle arrest in human MDA-MB-231 cells assessed as increase in G2/M-phase population after 24 hrs by flow cytometric analysis; format: functional, cell-based
# MDA-MB-231 [24] = experiment: Induction of mitochondrial membrane potential loss in human MDA-MB-231 cells assessed as ratio of green to red fluorescence at 5 uM after 24 hrs by JC1 staining based flow cytometric analysis (reference value: 4.55); format: functional
# MDA-MB-231 [25] = experiment: Anti-migratory activity against human MDA-MB-231 cells assessed as reduction in cell migration towards wound area at 0.1 uM after 24 hrs by phase contrast microscopic analysis; format: functional, cell-based
structure (smiles),measurement,setting,value
C1=C2c3ccccc3CC[C@@H]2N2CCC[C@H]2C1,IC50,MDA-MB-231 [1],47.2 µM
same,IC50,MCF7 [2],> 50 µM
same,IC50,HEK293,> 50 µM
C1=C2c3ccccc3CC[C@H]2N2C[C@H](OCc3ccccc3)C[C@H]2C1,IC50,MDA-MB-231 [1],35.6 µM
same,IC50,MCF7 [2],5.4 µM
same,IC50,HEK293,> 50 µM
C1=C2c3ccccc3CC[C@H]2N2CCC[C@H]2C1,IC50,MDA-MB-231 [1],> 50 µM
same,IC50,MCF7 [2],34.4 µM
same,IC50,HEK293,> 50 µM
C1=C2c3ccccc3CC[C@@H]2N2C[C@H](OCc3ccccc3)C[C@H]2C1,IC50,MDA-MB-231 [1],45.3 µM
same,IC50,MCF7 [2],40.6 µM
same,IC50,HEK293,> 50 µM
C[C@]12CC=C3c4ccccc4CC[C@H]3N1CCC2,IC50,MDA-MB-231 [1],33.9 µM
same,IC50,MCF7 [2],4.3 µM
same,IC50,HEK293,> 50 µM
CC(C)(C)NC(=O)[C@H]1CC[C@H]2[C@@H]3CC[C@H]4NC(=O)C=C[C@]4(C)[C@H]3CC[C@]12C [FINASTERIDE],IC50,MDA-MB-231 [1],> 50 µM
same,Activity,MCF7 [3],Active
same,IC50,MCF7 [2],44.1 µM
same,Activity,MCF7 [4],inactive
same,IC50,HEK293,> 50 µM
same,Activity,MCF7 [5],inactive
C[C@]12CC=C3c4ccccc4CC[C@@H]3N1CCC2,Activity,MDA-MB-231 [6],100%
same,Activity,MCF7 [7],Dose-dependent effect
same,IC50,MDA-MB-231 [1],1.4 µM
same,Activity,MCF7 [3],Active
same,Activity,MDA-MB-231 [8],Dose-dependent effect
same,IC50,MCF7 [2],1 µM
same,Ratio,MCF7 [9],8.29
same,Activity,MDA-MB-231 [10],Dose-dependent effect
same,IC50,HEK293,> 50 µM
same,Activity,MDA-MB-231 [11],Dose-dependent effect
same,Ratio,MDA-MB-231 [12],9.35
same,Activity,MCF7 [13],Dose-dependent effect
same,Ratio,MCF7 [14],4.45
same,inhibition,MCF7 [15],Active
same,Activity,MCF7 [16],Active
same,Activity,MCF7 [17],Dose-dependent effect
same,Activity,MDA-MB-231 [18],Active
same,Activity,MCF7 [19],Active
same,Ratio,MCF7 [20],2.51
same,Activity,MDA-MB-231 [21],Dose-dependent effect
same,Ratio,MDA-MB-231 [22],7.8
same,Activity,MCF7 [5],Active
same,Activity,MDA-MB-231 [23],Dose-dependent effect
same,Ratio,MDA-MB-231 [24],9.045
same,Activity,MDA-MB-231 [25],inactive
COc1ccc2c(c1)C1=CC[C@@H]3C[C@@H](OCc4ccccc4)CN3[C@H]1CC2,IC50,MDA-MB-231 [1],9.8 µM
same,IC50,MCF7 [2],> 50 µM
same,IC50,HEK293,> 50 µM
COc1ccc2c(c1)C1=CC[C@@H]3C[C@@H](OCc4ccccc4)CN3[C@@H]1CC2,IC50,MDA-MB-231 [1],42.4 µM
same,IC50,MCF7 [2],> 50 µM
same,IC50,HEK293,> 50 µM
